Measured values as given in patent US12018011B2, “Macrocyclic compounds and compositions, and methods of preparing and using the same” (Kura Oncology, Inc., priority 2021, dated 2024).

Legend:
[1] = target: T1, Recombinant human farnesyl transferase (FTase) (Homo sapiens, UniProt P49356); experiment: FTase fluorescence assay (farnesylation of dansyl-GCVLS peptide); type: biochemical; details: recombinant human FTase 2.5 nM, Dansyl-GCVLS 85 nM, FPP 30 nM, 30° C., 50 minutes
T1 construct: purchased Crelux (Martinsried, Germany)

T24/83 cells = experiment: T24/83 cell proliferation assay (CellTiter-Glo); type: cell-based; details: Homo sapiens, 96 h, 4 days
Source text: (§1) T24/83 cell line was purchased from the European Collection of Authenticated Cell Cultures (Salisbury, UK). Recombinant human farnesyl transferase (FTase) and geranylgeranyl transferase type-1 (GGTase) were obtained from Crelux (Martinsried, Germany). Dansyl labelled GCVLS peptide was purchased from Bachem (Torrance, CA), and Dansyl labelled GCVLL peptide was purchased from Bio Synthesis (Lewisville, TX). Farnesyl Pyrophosphate (FPP) and Geranylgeranyl pyrophosphate (GGPP) were purchased from Cayman (Ann Arbor, MI).
Mutant oncogenic HRAS was originally identified in a human bladder carcinoma cell line called T24. T24/83 is a subline of T24 established more recently that has more favorable growth characteristics for in vitro assays. Thus, T24/83 is a well-characterized mutant HRAS-dependent cell line that is an ideal model for quantifying the HRAS-dependent antitumor activity of farnesyltransferase inhibitors.
T24/83 cells were inoculated into 384 well plates at 100 cells/well, and grown in the presence of inhibitor, 0.7% DMSO as a negative control, or 100 μM tipifarnib as a positive control, at 37° C. for 4 days. Cell viability was assessed using the CellTiter-Glo Kit (CTG) (Promega; Madison, WI). Luminescence was recorded using EnVision microplate reader (PerkinElmer; Waltham, MA). In this assay, tipifarmib was used as a positive control. All the assay plates passed the QC criteria (S/B, Z-factor).

[2] = target: T2, geranylgeranyl transferase type-1 (GGTase) (Homo sapiens, UniProt P53609); experiment: GGTase fluorescence assay (dansyl-GCVLL peptide, GGPP); type: biochemical; details: GGTase 25 nM, Dansyl-GCVLL 10 μM, GGPP 10 μM, 30° C., 120 minutes
T2 construct: purchased Crelux (Martinsried, Germany)
Source text: as §1
Geranylgeranyl transferase (GGTase) is a closely related enzyme to farnesyl transferase (FTase). The two enzymes share a common regulatory chain but have distinct individual enzymatic domains. GGTase catalyses the addition of an alternative prenylated side chain to some of the same proteins that may also be farnesylated. Thus, selective inhibitory activity against FTase relative to GGTase is a critical characteristic for FTase inhibitors.
The IC50 value of the compounds disclosed herein as inhibitors of Ftase and/or GGTase, was determined by measuring the concentration (provided in nM) necessary to achieve inhibition of enzyme activity by 50% (IC50). […] Compounds having a low IC50 value against FTase, for example an IC50 (FTase)<100 nM, such as an IC50 (FTase)<10 nM, are preferred. Compounds having a low IC50 value against FTase and a high IC50 value against GGTase, for example an IC50 (FTase)<100 nM, such as an IC50 (FTase)<10 nM, and an IC50 (GGTase)>100 nM, are potent and selective inhibitors of FTase, and are particularly preferred.
The inhibition activities of the compounds disclosed herein against Ftase and GGTase were measured in the respective fluorescence assays as follows:
For the GGTase assay, GGTase (25 nM), Dansyl labelled GCVLL peptide (10 μM), GGPP (10 μM) and inhibitor were mixed in assay buffer (50 mM Tris, pH 7.5, 10 mM magnesium chloride, 10 μM zinc chloride, 0.08% CHAPS, 5 mM dithiothreitol) and incubated in a total volume of 20 μL at 30° C. for 120 minutes.
For both the FTase assay and GGTase assay, fluorescence intensity was detected (excitation at 340 nm and emission at 486 nm) using EnVision (PerkinElmer; Waltham, MA), IC50 determinations were performed using a sigmoidal dose-response model with Xlfit software (IDBS, Inc.; Boston, MA), and tipifarnib was used as a positive control. All the assay plates for each assay passed the QC criteria (S/B, Z factor).

IC50 [1] | IC50 (T24/83 cells) | IC50 [2] | SMILES
≤ 10 nM | ≤ 50 nM | > 1000 nM | [2H]C([2H])([2H])n1c(=O)cc2c3cc(ccc31)[C@@](O)(c1cncn1C)c1ccc(C#N)c(c1)COc1cccc-2c1 [(S)-55, (S)-3-hydroxy-2^1-(methyl-d3)-3-(1-methyl-1H-imidazol-5-yl)-2^2-oxo-2^1,2^2-dihydro-6-oxa-2(4,6)-quinolina-1,4(1,3)-dibenzenacyclohexaphane-4^4-carbonitrile]
≤ 10 nM | ≤ 50 nM | 100 to 1000 nM | Cn1cncc1[C@@]1(N)c2ccc(C#N)c(c2)OCc2cccc(c2)-c2cc(C#N)nc3ccc1cc23 [(S)-21, (S)-3-amino-3-(1-methyl-1H-imidazol-5-yl)-5-oxa-2(4,6)-quinolina-1,4(1,3)-dibenzenacyclohexaphane-2^2 4^4-dicarbonitrile]
≤ 10 nM | ≤ 50 nM | > 1000 nM | Cn1cncc1[C@@]1(N)c2ccc(C#N)c(c2)COc2cccc(c2)-c2cc(=O)n(C3CC3)c3ccc1cc23 [(S)-57, (S)-3-amino-2^1-cyclopropyl-3-(1-methyl-1H-imidazol-5-yl)-2^2-oxo-2^1,2^2-dihydro-6-oxa-2(4,6)-quinolina-1,4(1,3)-dibenzenacyclohexaphane-4^4-carbonitrile]
≤ 10 nM | ≤ 50 nM | 100 to 1000 nM | Cn1cncc1[C@@]1(N)c2ccc(C#N)c(c2)CCc2cccc(c2)-c2cc(C#N)nc3ccc1cc23 [(R)-9, (R)-3-amino-3-(1-methyl-1H-imidazol-5-yl)-2(4,6)-quinolina-1,4(1,3)-dibenzenacyclohexaphane-2^2 4^4-dicarbonitrile]
≤ 10 nM | ≤ 50 nM | > 1000 nM | Cn1cncc1[C@@]1(N)c2ccc(Cl)c(c2)COc2cccc(c2)-c2cc(C#N)nc3ccc1cc23 [(S)-48, (S)-3-amino-4^4-chloro-3-(1-methyl-1H-imidazol-5-yl)-6-oxa-2(4,6)-quinolina-1,4(1,3)-dibenzenacyclohexaphane-2^2-carbonitrile]
